What was measured:
[1] = system: Male Sprague-Dawley rats; experiment: Forced swim test in rats; format: in vivo, rat; conditions: i.p., imipramine 15 mg/kg, PRC025 10 mg/kg; for Time immobile (Counts/5 min) / Time swimming (Counts/5 min): mean ±SEM, *P < 0.05 vs. saline
Method: When rats are placed in a cylinder of water from which they cannot escape, they will remain immobile in the water for the majority of the test.
Water was changed between trials, and the procedure involved a pretest and a 5-minute test separated by 24 hours. During the pretest, rats (adapted to the experimental room for no less than 1 hour) were placed in the cylinder for 15 minutes. Following this initial exposure, the rats were dried with towels and transferred to a “drying cage” situated under a warming lamp. […] The following day, rats were transferred to the experimental room and acclimated for at least 1 hour.
The rat was considered immobile when floating motionless or making only those movements necessary to keep its head above the surface of the water. Scores for each behavior (swimming or immobility) were expressed as total counts per […]. Statistical analysis was performed using ANOVA followed by the Tukey test for post-hoc comparisons.

[2] = system: Male C57B1/6J mice; experiment: Tail suspension test in mice; format: in vivo, mouse; conditions: PRC025 10 mg/kg; for Time immobile (Counts/6 min) / Time mobile (Counts/6 min): i.p. 30 minutes before testing, imipramine 15 mg/kg (table), mean ±SEM, *P < 0.05 vs. saline
Text: When mice are suspended by their tail, there is an initial period of agitation, followed by immobility. This test identifies antidepressant compounds, which decrease the duration of immobility.
Mice were then individually suspended by their tails 35 cm above the tabletop using an adhesive tape placed 1 cm from the tip of the tail. Behavior was scored every 5 seconds throughout the 6-minute test as either mobile or immobile. Mice were considered immobile only when hanging passively and completely motionless. Scores for each behavior were expressed as total counts per […]. Statistical analysis was performed using ANOVA followed by the Tukey test for post-hoc comparisons.

[3] = molecular target: T1, human serotonin transporter (hSERT) (Homo sapiens, UniProt P31645)
T1 sequence (P31645 whole entry): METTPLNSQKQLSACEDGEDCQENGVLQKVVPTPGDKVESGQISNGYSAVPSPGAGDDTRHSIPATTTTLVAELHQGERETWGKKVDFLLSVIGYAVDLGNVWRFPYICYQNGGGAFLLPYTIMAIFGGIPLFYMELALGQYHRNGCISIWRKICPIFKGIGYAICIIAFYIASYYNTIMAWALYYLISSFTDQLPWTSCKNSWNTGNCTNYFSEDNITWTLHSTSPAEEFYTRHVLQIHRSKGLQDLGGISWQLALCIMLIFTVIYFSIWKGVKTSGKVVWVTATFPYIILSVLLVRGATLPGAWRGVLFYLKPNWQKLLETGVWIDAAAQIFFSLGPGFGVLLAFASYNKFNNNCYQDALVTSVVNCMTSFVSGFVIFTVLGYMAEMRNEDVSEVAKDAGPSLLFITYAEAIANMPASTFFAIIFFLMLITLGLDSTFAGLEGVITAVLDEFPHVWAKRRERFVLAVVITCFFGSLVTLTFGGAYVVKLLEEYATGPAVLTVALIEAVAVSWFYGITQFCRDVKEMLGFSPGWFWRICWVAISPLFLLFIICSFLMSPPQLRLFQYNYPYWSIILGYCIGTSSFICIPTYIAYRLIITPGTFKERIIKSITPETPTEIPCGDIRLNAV
Method: (§1) The cells were incubated in 10% CO2, 90% air at 37° C. and 100% humidity. The hNET cell cultures contained 250 μg/mL geneticin sulfate. The cells were grown to 70-80% confluency prior to harvesting.
(§2) Cell membranes containing hSERT, hNET, or hDAT were prepared from the cell lines to assay ligand binding for each of the transporters. […] The washed cells were incubated for 5 minutes at 37° C. in 10 mL solution 1 containing 100 mM ethylene glycol-bis N,N,N′,N′-tetraacetic acid (EGTA). The cells were then scraped from the flask surface with a rubber spatula, placed into a centrifuge tube, and collected by centrifugation at 1000×g for 5 minutes at 4° C. The resulting supernatant was discarded, and the cell pellet was resuspended in 0.5 to 1.0 mL of the appropriate binding buffer (described below). The resuspended cell pellet was homogenized using a Polytron for 10 seconds at setting 6. The resulting homogenate was centrifuged at about 36,000×g for 10 minutes at 4° C. The supernatant was discarded, and the pellet was resuspended in the same volume of the appropriate binding buffer and centrifuged again. […]
(§3) Radioligand binding assays for the indicated transporters were performed as follows. […] Radioactivity was measured with a Beckman liquid scintillation counter (LS 5000TD). […]

[4] = molecular target: T1, human serotonin transporter (hSERT); experiment: biochemical
Method: as §1, §2, §3

[5] = molecular target: human dopamine transporter (hDAT) (Homo sapiens, UniProt Q01959); experiment: biochemical
Method: as §1, §2
To assess binding to the cloned HDAT, cells expressing HDAT were homogenized in 50 mM Tris-HCl with 120 mM NaCl (pH 7.4). […] Radioactivity was measured with a Beckman liquid scintillation counter (LS 5000TD). […]

| SMILES | swimming behavior versus saline (in words) [1] | Time immobile (Counts/5 min) [1] | Time swimming (Counts/5 min) [1] | Time immobile (Counts/6 min) [2] | Time mobile (Counts/6 min) [2] | mobile behavior versus saline (in words) ([2]; i.p., imipramine) | binding to hSERT (in words) [3] | Kd [4] | Kd [5] |
| --- | --- | --- | --- | --- | --- | --- | --- | --- | --- |
| CN(C)CCCN1c2ccccc2CCc2ccccc21 [Imipramine, imipramine] | statistically more swimming behavior than rats treated with saline | 23 ± 3* Counts/5 min | 37 ± 3* Counts/5 min | 21 ± 4* Counts/6 min | 51 ± 4* Counts/6 min | statistically more mobile behavior than mice treated with saline |  |  |  |
| CN(C)CC(c1ccc2ccccc2c1)C(O)C1CCCCC1 (racemic) [PRC025, (2RS,3SR)-N,N-dimethyl-3-cyclohexyl-3-hydroxy-2-(2′-naphthyl)propylamine] |  | 28 ± 3* Counts/5 min | 30 ± 3* Counts/5 min | 12 ± 3* Counts/6 min | 60 ± 3* Counts/6 min |  | strong binding | 0.0041 µM | 0.054 µM |
| CNCC(c1ccc2ccccc2c1)C(O)c1ccccc1 (racemic) [Compound A, (2RS,3RS)-N-methyl-3-hydroxy-2-(2′-naphthyl)-3-phenylpropylamine] |  |  |  |  |  |  |  |  | 0.134 µM |

From US20080200556A1, “Amine Compounds And Inhibiting Neurotrasmitter Reuptake” (MAYO FOUNDATION FOR MEDICAL EDUCATION AND RESEARCH, priority 2004, published 2008)
